US12122800B2, “Inhibitors of MEK kinase” (Kinnate Biopharma Inc., priority 2022, dated 2024)
pIC50: −log10 of the molar value.

system: A375 pERK; test: Cellular assay monitoring phosphorylation of ERK (HTRF phospho-ERK Thr202/Tyr204) in A-375 cells; type: cell-based; conditions: Homo sapiens, melanoma derived cell line A-375 (BRAF V600 activating mutation), 1 hour incubation with compound
Protocol: To determine the effect of the MEK inhibitor compounds disclosed herein on cellular MAPK signaling downstream of MEK, an assay monitoring phosphorylation of ERK was used. Melanoma derived cell line A-375, which harbors a BRAF V600 activating mutation was cultured and maintained as specified by the supplier (ATCC: Cat #CRL-1619; American Type Culture Collection; Manassas, VA 20110). Cells were seeded at 8000 cells/well in 24 μL growth media in a 384-well plate and allowed to adhere at 37° C. with 5% CO2 overnight. The following day, compounds were serially diluted into 10-point, 3-fold dilution curves in 384 well plates. Compound was transferred to cell plates using Echo550 such that the final concentration range was 0.508 nM to […] in […] with 0.1% DMSO being used as negative control. Cells were incubated with compounds for 1 hour at 37° C. with […]. Cells were lysed by addition of 8 μL 4× lysis buffer provided with HTRF kit (Advanced phospho-ERK (Thr202/Tyr204) cellular kit; Cisbio; Cat #64AERPEH) plus 1× protease/phosphatase inhibitor cocktail. 20 μL lysate was transferred to HTRF plate followed by 2.5 μL each of anti-ERK1/2-Europium/Terbium Cryptate and anti-phospho-ERK1/2 antibody solutions per manufacturer's instructions and incubated. Specific signal was measured at […] on a Perkin Elmer Envision 2105 and the ratios used to calculate IC50 values within the Dotmatics Knowledge Solutions Studies curve fitting environment (Dotmatics, Bishops Stortford, UK, CM23) and are presented in Table 8.

Structure (SMILES)	pIC50
CC[P@@](C)(=O)c1ccncc1Nc1ccc(Br)cc1F (single isomer, unassigned) [Example 16]	6.00 to 7.00
CC[P@](C)(=O)c1ccncc1Nc1ccc(Br)cc1F (single isomer, unassigned) [Example 17]	6.00 to 7.00
C#Cc1ccc(Nc2cnccc2[P@](C)(=O)CC)c(F)c1 (single isomer, unassigned) [Example 19]	6.00 to 7.00
C#Cc1ccc(Nc2cnccc2[P@@](C)(=O)CC)c(F)c1 (single isomer, unassigned) [Example 20]	6.00 to 7.00
CP(C)(=O)c1ccncc1Nc1ccc(I)cc1F [Example 1, 4-(Dimethylphosphoryl)-N-(2-fluoro-4-iodophenyl)pyridin-3-amine]	< 8.00
CP(C)(=O)c1ccc(F)cc1Nc1ccc(I)cc1F [Example 2, 2-(Dimethylphosphoryl)-5-fluoro-N-(2-fluoro-4-iodophenyl)aniline]	≥ 6.00
CP(C)(=O)c1ccc(F)c(F)c1Nc1ccc(I)cc1F [Example 4, 6-(Dimethylphosphoryl)-2,3-difluoro-N-(2-fluoro-4-iodophenyl)aniline]	≥ 6.00
CP(C)(=O)c1ccncc1Nc1ccc(Br)cc1F [Example 10, N-(4-Bromo-2-fluorophenyl)-4-(dimethylphosphoryl)pyridin-3-amine]	6.00 to 7.00
CCP(=O)(CC)c1ccncc1Nc1ccc(Br)cc1F [Example 11, N-(4-bromo-2-fluorophenyl)-4-(diethylphosphoryl)pyridin-3-amine]	6.00 to 7.00
O=P1(c2ccncc2Nc2ccc(Br)cc2F)CCCC1 [Example 12, 1-(3-((4-Bromo-2-fluorophenyl)amino)pyridin-4-yl)phospholane 1-oxide]	6.00 to 7.00
CP(C)(=O)c1c(Cl)cncc1Nc1ccc(I)cc1F [Example 13, 5-Chloro-4-(dimethylphosphoryl)-N-(2-fluoro-4-iodophenyl)pyridin-3-amine]	< 8.00
C#Cc1ccc(Nc2cnccc2P2(=O)CCCC2)c(F)c1 [Example 15, 1-(3-((4-Ethynyl-2-fluorophenyl)amino)pyridin-4-yl)phospholane 1-oxide]	6.00 to 7.00
C#Cc1ccc(Nc2cnccc2P(=O)(CC)CC)c(F)c1 [Example 18, 4-(Diethylphosphoryl)-N-(4-ethynyl-2-fluorophenyl)pyridin-3-amine]	6.00 to 7.00
CP(C)(=O)c1cc(F)ncc1Nc1ccc(I)cc1F [Example 21, (2-Fluoro-5-((2-fluoro-4-iodophenyl)amino)pyridin-4-yl)dimethylphosphine oxide]	6.00 to 7.00
CP(C)(=O)c1c(F)cncc1Nc1ccc(I)cc1F [Example 24, 4-(Dimethylphosphoryl)-5-fluoro-N-(2-fluoro-4-iodophenyl)pyridin-3-amine]	< 8.00
CP(C)(=O)c1c(F)cncc1Nc1ccc(Br)cc1Cl [Example 26, N-(4-bromo-2-chlorophenyl)-4-(dimethylphosphoryl)-5-fluoropyridin-3-amine]	< 8.00
CP(C)(=O)c1ccncc1Nc1ccc(Br)cc1Cl [Example 27, N-(4-bromo-2-chlorophenyl)-4-(dimethylphosphoryl) pyridin-3-amine]	6.00 to 7.00
CP(C)(=O)c1c(Cl)cncc1Nc1ccc(Br)cc1Cl [Example 28, N-(4-Bromo-2-chlorophenyl)-5-chloro-4-(dimethylphosphoryl)pyridin-3-amine]	6.00 to 7.00
CP(C)(=O)c1c(Cl)cncc1Nc1ccc(Br)cc1F [Example 29, (3-((4-Bromo-2-fluorophenyl)amino)-5-chloropyridin-4-yl)dimethylphosphine oxide]	7.00 to 8.00
Cc1cncc(Nc2ccc(I)cc2F)c1P(C)(C)=O [Example 30, 4-(Dimethylphosphoryl)-N-(2-fluoro-4-iodophenyl)-5-methylpyridin-3-amine]	< 8.00
C#Cc1ccc(Nc2cncc(F)c2P(C)(C)=O)c(F)c1 [Example 31, 4-(Dimethylphosphoryl)-N-(4-ethynyl-2-fluorophenyl)-5-fluoropyridin-3-amine]	7.00 to 8.00
CP(C)(=O)c1c(Cl)cncc1Nc1ccc(C2CC2)cc1F [Example 32, (3-Chloro-5-((4-cyclopropyl-2-fluorophenyl)amino)pyridin-4-yl)dimethylphosphine oxide]	7.00 to 8.00

Next, values leading:

pIC50	Structure (SMILES)
7.00 to 8.00	CC[P@@](C)(=O)c1ccncc1Nc1ccc(I)cc1F (single isomer, unassigned) [Example 8]
7.00 to 8.00	CC[P@](C)(=O)c1ccncc1Nc1ccc(I)cc1F (single isomer, unassigned) [Example 9]
7.00 to 8.00	CP(C)(=O)c1ccncc1Nc1ccc(I)c(F)c1F [Example 3, N-(2,3-Difluoro-4-iodophenyl)-4-(dimethylphosphoryl)pyridin-3-amine]
7.00 to 8.00	O=P1(c2ccncc2Nc2ccc(I)cc2F)CCCC1 [Example 5, 1-(3-((2-Fluoro-4-iodophenyl)amino)pyridin-4-yl)phospholane 1-oxide]
7.00 to 8.00	CCP(=O)(CC)c1ccncc1Nc1ccc(I)cc1F [Example 6, 4-(Diethylphosphoryl)-N-(2-fluoro-4-iodophenyl)pyridin-3-amine]
7.00 to 8.00	CCP(C)(=O)c1ccncc1Nc1ccc(I)cc1F (centres unmarked) [Example 7, 4-[Ethyl(methyl)phosphoryl]-N-(2-fluoro-4-iodophenyl)pyridin-3-amine]
7.00 to 8.00	C#Cc1ccc(Nc2cnccc2P(C)(C)=O)c(F)c1 [Example 14, (3-((4-Ethynyl-2-fluorophenyl)amino)pyridin-4-yl)dimethylphosphine oxide]
7.00 to 8.00	CP(C)(=O)c1ccncc1Nc1ccc(I)cc1 [Example 22, 4-(Dimethylphosphoryl)-N-(4-iodophenyl)pyridin-3-amine]
7.00 to 8.00	CP(C)(=O)c1ccncc1Nc1ccc(C2CC2)cc1F [Example 23, N-(4-Cyclopropyl-2-fluorophenyl)-4-(dimethylphosphoryl)pyridin-3-amine]
7.00 to 8.00	CP(C)(=O)c1ccnc(F)c1Nc1ccc(I)cc1F [Example 25, (2-Fluoro-3-((2-fluoro-4-iodophenyl)amino)pyridin-4-yl)dimethylphosphine oxide]
